Some results are limits rather than exact numbers.

The target of this assay is Keap1 (Homo sapiens (Human), UniProt Q14145). Briefly: HEK293 ARE luciferase assay. Conditions: HEK-293 ARE firefly luciferase transiently transfected cells; 18 h incubation; mean of 1 to 20 individual measurements. The class given is cell-based. Put shortly: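 Transiently transfected HEK-293 ARE firefly luciferase cells (10,000/well, DMEM with 10% FCS) exposed to compound, 10-point curve from 100 μM top, 0.3% DMSO, 18 h at 37 °C. SteadyGlo luminescence; activity normalised to 30 μM tBHQ (stimulator) and DMSO (neutral), activity threshold 50; means of 1-20 measurements.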
Sequence of Keap1 (Q14145 whole entry): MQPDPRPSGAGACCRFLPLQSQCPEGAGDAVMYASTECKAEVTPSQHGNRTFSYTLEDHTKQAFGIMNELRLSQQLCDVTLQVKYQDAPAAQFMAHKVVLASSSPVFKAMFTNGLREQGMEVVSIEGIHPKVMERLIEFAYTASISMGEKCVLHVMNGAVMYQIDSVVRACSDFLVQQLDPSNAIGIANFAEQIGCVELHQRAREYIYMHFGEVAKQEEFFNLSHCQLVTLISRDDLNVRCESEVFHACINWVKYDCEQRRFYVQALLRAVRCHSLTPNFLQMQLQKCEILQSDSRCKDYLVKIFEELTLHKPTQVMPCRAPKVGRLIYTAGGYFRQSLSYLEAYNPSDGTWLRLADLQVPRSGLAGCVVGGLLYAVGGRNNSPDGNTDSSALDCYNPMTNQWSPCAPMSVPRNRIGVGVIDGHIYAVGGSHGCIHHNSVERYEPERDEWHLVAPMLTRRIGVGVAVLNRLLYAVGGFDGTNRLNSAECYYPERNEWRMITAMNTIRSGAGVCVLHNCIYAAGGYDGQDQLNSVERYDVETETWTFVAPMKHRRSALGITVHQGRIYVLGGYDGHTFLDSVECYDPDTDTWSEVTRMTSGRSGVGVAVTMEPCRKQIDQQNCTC
On to `COC1(c2cc(C(F)(F)F)ccn2)C=C(C#N)C(=O)C(C)(C)C1` (stereo not shown) [Compound 1, 3-methoxy-5,5-dimethyl-6-oxo-3-[4-(trifluoromethyl)-2-pyridyl]cyclohexene-1-carbonitrile], for which it took 408 nM to reach a half-maximal effect (EC50).

With `COC1(c2cccc(Br)n2)C=C(C#N)C(=O)C(C)(C)C1` (stereo not shown) [Compound 2, 3-(6-bromo-2-pyridyl)-3-methoxy-5,5-dimethyl-6-oxo-cyclohexene-1-carbonitrile], the 50% effective concentration (EC50) – broadly, the concentration at which the effect is half-maximal – came to 228 nM.

`COC1(c2ccc(C(F)(F)F)cn2)C=C(C#N)C(=O)C(C)(C)C1` (stereo not shown) [Compound 3, 3-methoxy-5,5-dimethyl-6-oxo-3-[5-(trifluoromethyl)-2-pyridyl]cyclohexene-1-carbonitrile] gave a half-maximal effective concentration (EC50) of 424 nM.

As for `COC1(c2nccc3ccccc23)C=C(C#N)C(=O)C(C)(C)C1` (stereo not shown) [Compound 4, 3-(1-isoquinolyl)-3-methoxy-5,5-dimethyl-6-oxo-cyclohexene-1-carbonitrile], it took 1140 nM to reach a half-maximal effect (EC50).

Turning to `CC1(C)CC(O)(c2ncccc2C(F)F)C=C(C#N)C1=O` (stereo not shown) [Compound 6, 3-[3-(difluoromethyl)-2-pyridyl]-3-hydroxy-5,5-dimethyl-6-oxo-cyclohexene-1-carbonitrile], the EC50 was greater than 10000 nM.

`COC1(c2ncccc2-c2ccccc2)C=C(C#N)C(=O)C(C)(C)C1` (stereo not shown) [Compound 7, 3-methoxy-5,5-dimethyl-6-oxo-3-(3-phenyl-2-pyridyl)cyclohexene-1-carbonitrile] had a concentration giving a half-maximal response (EC50) of 82 nM.

In turn, `COC1CN(c2cccc(C3(OC)C=C(C#N)C(=O)C(C)(C)C3)n2)C1` (stereo not shown) [Compound 8, 3-methoxy-3-[6-(3-methoxyazetidin-1-yl)-2-pyridyl]-5,5-dimethyl-6-oxo-cyclohexene-1-carbonitrile] yielded an EC50 of 186 nM.

Take `COC1(c2ccccn2)C=C(C#N)C(=O)C(C)(C)C1` (stereo not shown) [Compound 11, 3-methoxy-5,5-dimethyl-6-oxo-3-(2-pyridyl)cyclohexene-1-carbonitrile]: the EC50 came to 85 nM.

Turning to `COC1(c2cccc(-n3ccnc3C)n2)C=C(C#N)C(=O)C(C)(C)C1` (stereo not shown) [Compound 12, 3-methoxy-5,5-dimethyl-3-[6-(2-methylimidazol-1-yl)-2-pyridyl]-6-oxo-cyclohexene-1-carbonitrile], the EC50 is 119 nM.

Take `COC1(c2ccc(C)nc2)C=C(C#N)C(=O)C(C)(C)C1` (stereo not shown) [Compound 16, 3-methoxy-5,5-dimethyl-3-(6-methyl-3-pyridyl)-6-oxo-cyclohexene-1-carbonitrile]: the EC50 worked out at 660 nM.

`COC1(c2cccnc2Cl)C=C(C#N)C(=O)C(C)(C)C1` (stereo not shown) [Compound 18, 3-(2-chloro-3-pyridyl)-3-methoxy-5,5-dimethyl-6-oxo-cyclohexene-1-carbonitrile]: the EC50 worked out at 265 nM.

For `COC1(c2ccccc2C(F)(F)F)C=C(C#N)C(=O)C(C)(C)C1` (stereo not shown) [Compound 19, 3-methoxy-5,5-dimethyl-6-oxo-3-[2-(trifluoromethyl)phenyl]cyclohexene-1-carbonitrile], the EC50 worked out at 1240 nM.

`COC1(c2cccc(C(F)(F)F)n2)C=C(C#N)C(=O)C(C)(C)C1` (stereo not shown) [Compound 20, 3-methoxy-5,5-dimethyl-6-oxo-3-[6-(trifluoromethyl)-2-pyridyl]cyclo-hexene-1-carbonitrile] gave a concentration for a half-maximal effect (EC50) of 126 nM.

Molecule `COC1(c2cccnc2Br)C=C(C#N)C(=O)C(C)(C)C1` (stereo not shown) [Compound 21, 3-(2-bromo-3-pyridyl)-3-methoxy-5,5-dimethyl-6-oxo-cyclohexene-1-carbonitrile] gave an EC50 of 452 nM.

As to `COC1(c2ncccc2Br)C=C(C#N)C(=O)C(C)(C)C1` (stereo not shown) [Compound 22, 3-(3-bromo-2-pyridyl)-3-methoxy-5,5-dimethyl-6-oxo-cyclohexene-1-carbonitrile], the concentration giving a half-maximal response (EC50) was 45 nM.

As for `CC1(C)CC(O)(c2ccc(C(F)(F)F)cn2)C=C(C#N)C1=O` (stereo not shown) [Compound 24, 3-hydroxy-5,5-dimethyl-6-oxo-3-[5-(trifluoromethyl)-2-pyridyl]cyclo-hexene-1-carbonitrile], the EC50 was greater than 10000 nM.

For the origin of these results see patent US11479539B2, “Small molecule modulators of the BTB domain of Keap1” (MedImmune Limited, priority 2017, dated 2022).
